Data on 8 compounds can be found in US5187157A, “Peptide boronic acid inhibitors of trypsin-like proteases” (Du Pont Merck Pharmaceutical Company, priority 1988, dated 1993).

In one series the test system is rats. The note with it: Tremoli et al.; cited from earlier work.
The target of the next series is thrombin. The note with it: literature; cited from earlier work.
Another series addresses T1, Human plasma kallikrein (Homo sapiens, UniProt P03952).
T1 construct: purchased Protogen AG (Switzerland)
The series is described as follows: Inhibition of Human Plasma Kallikrein. Format: biochemical. The note with it: inhibitor 10 nM; activity remaining 10 to 20 min after initiation.

Another series addresses T2, Human thrombin (Homo sapiens, UniProt P00734).
T2 construct: purchased R.Q.P. Laboratories, South Bend, IN Lot HT102
The series can be described thus: Inhibition of Thrombin (Esterase Activity). The format is biochemical. The following applies: inhibitor 5 nM; activity remaining 10 to 20 min after initiation.

Series [1] concerns normal human plasma. The series is described as follows: Activated partial thromboplastin times (APTT), blood coagulation in vitro. The format is biochemical. The note with it: for Calc. Concentration 2 × APTT: approximate concentration required to increase APTT two fold. The method, then:
(§1) The effectiveness of inhibitors in reactions in which they compete with natural substrates for target enzymes is measured in vitro in blood coagulation assays. Two different assays are used, the APTT (activated partial thromboplastin times) and PT (prothrombin times) assays. These assays mimic the blood clotting process in vivo. Blood coagulation occurs through either of two pathways, each consisting of a cascades of zymogen activation steps. The pathways are termed the intrinsic and the extrinsic pathways (see L. Lorand, Methods in Enzymology 45: 31-37 (1976). The intrinsic pathway is initiated by negatively charged surfaces in which plasma kallikrein, factor XII and factor […] are activated and then factors IX and X and prothrombin are activated in calcium dependent steps. Thrombin, the last protease in the cascade, hydrolyses fibrinogen to fibrin which results in clot formation. In the APTT assay, plasma components are activated by exposure to negatively charged surfaces and then clotting times are measured after calcium is added to the system. In the extrinsic pathway, tissue thromboplastin activates factor VII which then activates factor X leading to the activation of thrombin. These events are measured in the prothrombin times assay.
The effect of protease inhibitors on blood coagulation in vitro was determined by measuring their effects on two different clinical parameters, the activated partial thromboplastin times (APTT) and prothrombin times (PT). Reagents for each of these assays were supplied by General Diagnostics, Jessup MD. Stock solutions of inhibitors were prepared in […] HEPES buffer, pH 7.5, containing 0.10 M sodium chloride. For the APTT assay, the inhibitor solution (0.100 mL) was incubated with normal human plasma (0.100 mL) and automated APTT reagent (0.100 mL). After incubation for 5.0 min at 37°, calcium chloride (0.100 mL) was added and the clotting times, measured in seconds, was determined on a fibrameter. The effects of the varying concentrations of inhibitor on blood clotting times compared with the clotting times of controls run in the absence of inhibitor, are shown in Table 3.

For series [2], the system named is normal human plasma. The series can be described thus: Prothrombin times (PT), blood coagulation in vitro. Format: biochemical. The note with it: for Calc. Concentration 2 × XPT: approximate concentration required to increase PT two fold. On the procedure:
as §1
For PT assays, inhibitor solutions (0.100 mL) were incubated with normal human plasma (0.100 mL) for 2 min at 37°.

Series [3] is described as follows: Stability of Inhibitors in Human Plasma As Measured By APTT. The following applies: for Clotting Time: 250 nM in APTT assay. Format: in vitro ADME. On the procedure:
The stability of inhibitors in plasma was determined by their ability to inhibit blood coagulation. First, a stock solutions (1.0 μM) of the inhibitors to be tested in 25 mM HEPES buffer, pH 7.5, containing 0.10 M sodium chloride were diluted 50% with normal human plasma. The mixtures were made at 0°, then aliquots (0.200 mL) were removed and incubated for 2 min at 37°. An equal volume of automated APTT reagent was added and clotting times were measured as described in Examples 111-117. The final concentration of inhibitor during the clotting assays was 250 nM. Values for compounds E and F were determined simultaneously with the Control. Values for compounds A, B and C were obtained on a different day.

Series [4] is described as follows: Stability of Inhibitors in Buffer (thrombin assay). The note with it: for Percent Thrombin activity: 1.0 μM; for stability in phosphate buffer at pH 7.5 (inhibitory activity): phosphate buffer pH 7.5.
Experimental: Samples of the inhibitors are removed at increasing time intervals and their ability to delay clotting is measured at each interval.
Inhibitors, each at a concentration of 1.0 μM, were incubated at room temperature in 0.20 M sodium phosphate buffer, pH 7.5, containing 0.20 M sodium chloride and 0.10% PEG.
Series [5] relates to plasma. The series is described as follows: Heparin effect on plasma clotting times. Format: biochemical. The following applies: assuming molecular weight 15,000 and 150 units/mg.
Series [6] concerns plasma. The following applies: 0.2-0.4 units of heparin per mL of plasma; cited from earlier work.
Series [7] relates to plasma. The following applies: at 1 μM; Green et al.; cited from earlier work.
Another series deals with Sprague Dawley CD Rats. The series is described as follows: In Vivo Inhibition of Croton Oil Induced Inflammation (ear swelling). The note with it: Table 14; dose=100 μg, essentially the same conditions.
The subject of another series is rabbit. The following applies: rabbit model; Shaw et al.; cited from earlier work.
The mark [8] stands for this setting: incubation in human plasma 0.5 h.
The mark [9] stands for this setting: incubation in human plasma 24 h.
Where [10] appears, read: 0 hr in 0.20 M sodium phosphate buffer pH 7.5, room temperature.

T1 sequence (P03952 391-638 limits assumed): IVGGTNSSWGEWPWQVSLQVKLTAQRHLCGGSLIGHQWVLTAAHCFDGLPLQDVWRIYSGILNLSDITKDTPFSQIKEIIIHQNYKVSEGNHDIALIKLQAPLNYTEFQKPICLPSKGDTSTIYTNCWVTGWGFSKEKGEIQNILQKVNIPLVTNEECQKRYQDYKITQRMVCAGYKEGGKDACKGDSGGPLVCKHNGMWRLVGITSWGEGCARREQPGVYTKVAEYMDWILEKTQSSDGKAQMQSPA
T1 sequence (P03952 20-390 partner limits assumed): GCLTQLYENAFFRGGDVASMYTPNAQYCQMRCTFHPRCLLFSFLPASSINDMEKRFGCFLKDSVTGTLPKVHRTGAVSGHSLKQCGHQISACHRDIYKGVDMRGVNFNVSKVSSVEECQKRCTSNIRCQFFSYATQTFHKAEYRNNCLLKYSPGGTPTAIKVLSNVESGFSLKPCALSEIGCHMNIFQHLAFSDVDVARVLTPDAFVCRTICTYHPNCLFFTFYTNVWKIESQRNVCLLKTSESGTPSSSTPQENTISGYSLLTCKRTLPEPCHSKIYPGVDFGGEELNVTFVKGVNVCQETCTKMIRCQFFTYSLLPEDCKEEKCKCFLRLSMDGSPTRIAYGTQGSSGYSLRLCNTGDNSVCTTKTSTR
Experimental for Sprague Dawley CD Rats: Two solutions were prepared, the first consisting of 5% croton oil, a known inflammatory agent, in an acetone carrier (Croton Solution) and the second consisting of 5% croton oil in an acetone carrier to which 10 mg/mL of a compound of the invention was added (Compound Solution). The Croton Solution (10 μL), or alternatively the Compound Solution (10 μL), was applied to the right ear of each animal (Sprague Dawley CD Rats, 130-140 g, supplied by Charles River Labs, Inc., Wilmington, MA). […] "SE" denotes standard error.

As for `CC(C)(C)OC(=O)N[C@H](Cc1ccccc1)C(=O)N1CCC[C@H]1C(=O)N[C@H](C=O)CCCNC(=N)N` [Boc-(D)Phe-Pro-Arg-H], the “size of venous thrombosis” value with rats is “reduces the size of venous thrombosis”.

Usually Ki stands for the equilibrium dissociation constant of an inhibitor or competing ligand from its target. `N=C(N)NCCC[C@@H](C=O)NC(=O)[C@@H]1CCCN1C(=O)[C@H](N)Cc1ccccc1` [H-(D)Phe-Pro-Arg-H]: the Ki at thrombin is 75 nM.

Turning to `CC1(C)C2CC3OB(C(CCCN=C(N)N)NC(=O)C4CCCN4C(=O)C(N)Cc4ccccc4)OC3(C)C1C2.Cl.Cl` (stereo not drawn) [B, H-(D)Phe-Pro-boroArg-C10 H16.2HCl], the results for the “Percent Activity” value at Human plasma kallikrein and on Human thrombin were 61% and 7%, respectively. For the same compound, the “Calc. Concentration 2 × APTT” value in the series with normal human plasma [1] is reported as 170 nM. Besides, the “Activated Partial Thromboplastin Times” value stood at 36.5 s in the series with normal human plasma [1] (inhibitor 62.5 nM); 44.2 s with normal human plasma [1] (inhibitor 125 nM); 71.5 s in the series with normal human plasma [1] (inhibitor 200 nM); 158.7 s in the series with normal human plasma [1] (inhibitor 250 nM); 169.7 s in the series with normal human plasma [1] (inhibitor 300 nM); 249.7 s in the series with normal human plasma [1] (inhibitor 350 nM). Also, the “Calc. Concentration 2 × XPT” value in the series on normal human plasma [2] is given as 460 nM. Moreover, the “Prothrombin Times” value in the series with normal human plasma [2] (inhibitor 12.5 nM) is 20.1 s; in the series with normal human plasma [2] (inhibitor 250 nM), 22.5 s; with normal human plasma [2] (inhibitor 500 nM) it was 33.8 s; in the series on normal human plasma [2] (inhibitor 625 nM), 46.5 s; in the series with normal human plasma [2] (inhibitor 750 nM), 85.3 s; in the series on normal human plasma [2] (inhibitor 1000 nM) it was above 250 s. The “Clotting Time” value in [3] (incubation in human plasma 0 h) was 152.2 s; in series [3] (setting [8]), 157.7 s; in series [3] (incubation in human plasma 1 h), 163.7 s; in series [3] (incubation in human plasma 2 h), 152.8 s; in series [3] (incubation in human plasma 4 h) it was 157.7 s; in series [3] (setting [9]), 109.3 s. The “stability in human plasma (inhibitor activity by clotting time)” value in series [3] (incubation with plasma) is recorded as “lost activity after 24 h”. Moreover, the “Percent Thrombin activity” value is on record as 2.0% in [4] (setting [10]); 15% in series [4] (0.5 hr in 0.20 M sodium phosphate buffer pH 7.5, room temperature); 100% in [4] (1 hr in 0.20 M sodium phosphate buffer pH 7.5, room temperature). The “stability in phosphate buffer at pH 7.5 (inhibitory activity)” value (“stability … (inhibitory activity)” for short) is “loses its biological activity over a period of an hour” in series [4] and “lost inhibitory activity within one hour” in series [4] (listed as H-(D)Phe-Pro-boroArg-C10 H16).

For heparin, the “molar concentration increasing clotting times 2-2.5 fold” value in the series on plasma [5] was in the range of 86 to 170 nM. Moreover, the “increase of clotting times” value with plasma [6] is on record as 2-2.5 fold.

`CC1CNc2c(cccc2S(=O)(=O)N[C@@H](CCCNC(=N)N)C(=O)N2CC[C@@H](C)C[C@@H]2C(=O)O)C1` (stereo partly drawn) [(2R,4R)-4-methyl-1[N^2 -{(3-methyl-1,2,3,4-tetrahydro-8-quinolinyl)sulfonyl}-L-arginyl]-2-piperid inecarboxylic acid]: in the series on plasma [7], the “increase of prothrombin times of plasma” value was 2 fold.

Consider `CC(C)(C)OC(=O)NC(Cc1ccccc1)C(=O)N1CCCC1C(=O)NC(CCCN=C(N)N)B1OC2CC3CC(C3(C)C)C2(C)O1.O=S(=O)(O)c1ccccc1` (stereo not drawn) [A, Boc-(D)Phe-Pro-boroArg-C10 H16.benzene sulfonic acid], for which, at Human thrombin, the “Percent Activity” value is 3%. In addition, in the series on normal human plasma [1], the “Calc. Concentration 2 × APTT” value is 230 nM. Also, the “Activated Partial Thromboplastin Times” value in the series with normal human plasma [1] (inhibitor 125 nM) turned out to be 36.6 s; in the series with normal human plasma [1] (inhibitor 200 nM), 40.2 s; in the series with normal human plasma [1] (inhibitor 250 nM), 81.2 s; in the series on normal human plasma [1] (inhibitor 300 nM), 113.3 s; with normal human plasma [1] (inhibitor 350 nM), 128.7 s. In the series with normal human plasma [2], the “Calc. Concentration 2 × XPT” value was 800 nM. Further, the “Prothrombin Times” value in the series with normal human plasma [2] (inhibitor 12.5 nM) was 16.4 s; in the series on normal human plasma [2] (inhibitor 250 nM) it was 17.1 s; in the series on normal human plasma [2] (inhibitor 500 nM) it was 21.5 s; in the series with normal human plasma [2] (inhibitor 750 nM), 26.7 s; with normal human plasma [2] (inhibitor 875 nM) it was 40.1 s; in the series on normal human plasma [2] (inhibitor 1000 nM) it was above 200 s. The “Clotting Time” value in series [3] (incubation in human plasma 0 h) amounted to 81.2 s; in series [3] (setting [8]) it was 84.7 s; in series [3] (incubation in human plasma 1 h), 79.7 s; in [3] (incubation in human plasma 2 h), 86.7 s; in series [3] (incubation in human plasma 4 h) it was 98.2 s; in series [3] (setting [9]), 92.2 s. For the same compound, the “Percent Inhibition” value with Sprague Dawley CD Rats is reported as 59%. The “Percent Thrombin activity” value in series [4] (setting [10]) is on record as 3.3%; in series [4] (6.5 hr in 0.20 M sodium phosphate buffer pH 7.5, room temperature) it was 1.6%; in series [4] (24 hr in 0.20 M sodium phosphate buffer pH 7.5, room temperature) it was 0.8%. Further, the “stability … (inhibitory activity)” value in series [4] is “little loss of inhibitor activity”.

For the compound `N=C(N)NCCC[C@H](NC(=O)[C@@H]1CCCN1C(=O)[C@H](N)Cc1ccccc1)C(=O)CCl` [H-(D)Phe-Pro-ArgCH2 Cl], the “prevention of coronary thrombosis” value with rabbit is reported as “effective in the prevention of coronary thrombosis”.

With `Br.CC(C)(C)OC(=O)NC(Cc1ccccc1)C(=O)N1CCCC1C(=O)NC(CCCSC(=N)N)B1OC2CC3CC(C3(C)C)C2(C)O1` (stereo not drawn) [C, Boc-(D)Phe-Pro-boroIrg-C10 H16.HBr], the “Percent Activity” value on Human thrombin was determined as 3%. The “Calc. Concentration 2 × APTT” value with normal human plasma [1] was 200 nM. Also, the “Activated Partial Thromboplastin Times” value worked out at 39.2 s in the series on normal human plasma [1] (inhibitor 62.5 nM); 46.9 s in the series with normal human plasma [1] (inhibitor 125 nM); 67 s with normal human plasma [1] (inhibitor 200 nM); 160 s with normal human plasma [1] (inhibitor 250 nM); 197.8 s in the series with normal human plasma [1] (inhibitor 300 nM); 301.8 s in the series with normal human plasma [1] (inhibitor 350 nM). In addition, the “Calc. Concentration 2 × XPT” value in the series with normal human plasma [2] is recorded as 650 nM. The “Prothrombin Times” value turned out to be 16.8 s with normal human plasma [2] (inhibitor 12.5 nM); 20.8 s with normal human plasma [2] (inhibitor 250 nM); 27.2 s in the series with normal human plasma [2] (inhibitor 500 nM); 44 s with normal human plasma [2] (inhibitor 750 nM); 152.7 s in the series with normal human plasma [2] (inhibitor 1000 nM). In addition, the “Clotting Time” value in [3] (incubation in human plasma 0 h) was 203.2 s; in series [3] (setting [8]) it was 207.2 s; in series [3] (incubation in human plasma 1 h) it was 214.2 s; in [3] (incubation in human plasma 2 h), 203.7 s; in [3] (incubation in human plasma 4 h), 209.7 s; in [3] (setting [9]), 248.7 s. Also, in the series on Sprague Dawley CD Rats, the “Percent Inhibition” value turned out to be 76%. The “stability … (inhibitory activity)” value in [4] is given as “little loss of inhibitor activity”.
